Assay results from US10183936B2, “Hepatitis B core protein allosteric modulators” (priority 2014, dated 2019).

Assays:
[1] = test system: HBV viral production in AD38 cells; experiment: Viral load production in AD38 cells by quantitative PCR of the HBV core sequence in supernatant; type: cell-based; conditions: Hepatitis B virus, 144 h; 10 μM compound, 6 days at 37° C., viral load in supernatant compared against DMSO control wells; read-out: AD38 Viral Load (CpAM/DMSO %) at 10 μM
Method in brief: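 AD38 cells seeded at 50,000/well, treated 6 days at 37° C with compound added as 10× solution in 10% DMSO. HBV core sequence in clarified supernatant quantified by TaqMan qPCR against known standards; viral load compared with DMSO control wells.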

AD38 cells = experiment: Viability of AD38 cells (Promega CellTiter-Glo) at the end of compound treatment; type: cell-based; conditions: 10 μM compound, 6 days, luminescence normalized against DMSO control wells (controls being 100%)
Method in brief: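 AD38 cells seeded at 50,000/well received compound from a 10× solution in 10% DMSO and were incubated 6 days at 37° C. Viability was then read by CellTiter-Glo luminescence in tetracycline-free medium with 2% FBS and 1% DMSO, normalized to DMSO control wells (100%) and reported as percent viability.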

Compound	activity at 10 µM [1] [%]	AD38 Viability Normalized Result (CPAM/DMSO %) at 10 μM (AD38 cells) [%]
O=C(NCCc1cncnc1)c1cc2c(cc1F)Sc1ccccc1C(=O)N2 [Compound 1411]	66	91
O=C1Nc2cc(S(=O)(=O)Nc3ccccc3)ccc2Sc2ccccc21 [Compound 1412]	48	87
O=C1Nc2cc(S(=O)(=O)Nc3ccc(F)cc3)ccc2Sc2ccccc21 [Compound 1413]	92	78
O=C1Nc2cc(S(=O)(=O)NCc3ccccc3)ccc2Sc2ccccc21 [Compound 1414]	39	89
O=C1Nc2cc(S(=O)(=O)NCc3ccc(F)cc3)ccc2Sc2ccccc21 [Compound 1415]	27	77
O=C(NCCc1cnco1)c1ccc2c(c1)NC(=O)c1cc(F)ccc1S2 [Compound 1417]	11	75
O=C(NCCc1cncs1)c1ccc2c(c1)NC(=O)c1cc(F)ccc1S2 [Compound 1418]	12	73
O=C(O)c1ccc(-c2cccc(NC(=O)c3ccc4c(c3)NC(=O)c3cc(F)ccc3S4)c2)cc1 [Compound 1419, 3′-(2-fluoro-11-oxo-10, 11-dihydrodibenzo [b,f] [1,4]thiazepine-8-carboxamido)-[1, 1′-biphenyl]-4-carboxylic acid]	113	89
COC(=O)c1ccc(-c2cccc(NC(=O)c3ccc4c(c3)NC(=O)c3cc(F)ccc3S4)c2)cc1 [Compound 1420, Methyl 3′-(2-fluoro-11-oxo-10, 11-dihydrodibenzo [b,f] [1,4]thiazepine-8-carboxamido)-[1,1′-biphenyl]-4-carboxylate]	29	86
O=C(O)c1cccc(-c2cccc(NC(=O)c3ccc4c(c3)NC(=O)c3cc(F)ccc3S4)c2)c1 [Compound 1421, 3′-(2-fluoro-11-oxo-10, 11-dihydrodibenzo [b,f] [1,4]thiazepine-8-carboxamido)-[1, 1′-biphenyl]-3-carboxylic acid]	78	95
COC(=O)c1cccc(-c2cccc(NC(=O)c3ccc4c(c3)NC(=O)c3cc(F)ccc3S4)c2)c1 [Compound 1422, Methyl 3′-(2-fluoro-11-oxo-10, 11-dihydrodibenzo [b,f] [1,4]thiazepine-8-carboxamido)-[1, 1′-biphenyl]-3-carboxylate]	64	95
O=C(NCCc1cncnc1)c1ccc2c(c1)NC(=O)c1ccccc1[S+]2[O-] (centres unmarked) [Compound 1423]	37	91
CCOC(=O)C(NC(=O)c1ccc2c(c1)NC(=O)c1cc(F)ccc1S2)c1ccccn1 (centres unmarked) [Compound 1424]	65	96
O=C(NCc1cccnc1)c1ccc2c(c1)NC(=O)c1ccccc1[S+]2[O-] (centres unmarked) [Compound 1427]	7	85
O=C(NCc1cncnc1)c1cc2c(cc1F)Sc1ccccc1C(=O)N2 [Compound 1428]	28	93
O=C(NCc1cncs1)c1cc2c(cc1F)Sc1ccccc1C(=O)N2 [Compound 1429]	38	90
O=C(NCc1cnco1)c1cc2c(cc1F)Sc1ccccc1C(=O)N2 [Compound 1430]	56	92
O=C1Nc2cc(S(=O)(=O)N3CCC(O)CC3)ccc2Sc2ccccc21 [Compound 1431]	115	92
O=C1Nc2cc(S(=O)(=O)N3CCCC3)ccc2Sc2ccccc21 [Compound 1432]	79	91
